Measured values reported in US10385056B2, “4-substituted pyrrolo[2,3-d]pyrimidine compound and use thereof” (JIANGSU CAREFREE PHARMACEUTICAL CO., LTD, priority 2014, dated 2019).

How the values were obtained:
JAK1 = JAK1 (Homo sapiens, UniProt P23458); test: Caliper Mobility Shift Assay, kinase inhibition; assay type: biochemical; conditions: ATP by Km value
JAK3 = biological target: T1, JAK3 (Homo sapiens, UniProt P52333); test: Caliper Mobility Shift Assay, kinase inhibition; assay type: biochemical; conditions: ATP by Km value
T1 sequence (P52333 1-1124): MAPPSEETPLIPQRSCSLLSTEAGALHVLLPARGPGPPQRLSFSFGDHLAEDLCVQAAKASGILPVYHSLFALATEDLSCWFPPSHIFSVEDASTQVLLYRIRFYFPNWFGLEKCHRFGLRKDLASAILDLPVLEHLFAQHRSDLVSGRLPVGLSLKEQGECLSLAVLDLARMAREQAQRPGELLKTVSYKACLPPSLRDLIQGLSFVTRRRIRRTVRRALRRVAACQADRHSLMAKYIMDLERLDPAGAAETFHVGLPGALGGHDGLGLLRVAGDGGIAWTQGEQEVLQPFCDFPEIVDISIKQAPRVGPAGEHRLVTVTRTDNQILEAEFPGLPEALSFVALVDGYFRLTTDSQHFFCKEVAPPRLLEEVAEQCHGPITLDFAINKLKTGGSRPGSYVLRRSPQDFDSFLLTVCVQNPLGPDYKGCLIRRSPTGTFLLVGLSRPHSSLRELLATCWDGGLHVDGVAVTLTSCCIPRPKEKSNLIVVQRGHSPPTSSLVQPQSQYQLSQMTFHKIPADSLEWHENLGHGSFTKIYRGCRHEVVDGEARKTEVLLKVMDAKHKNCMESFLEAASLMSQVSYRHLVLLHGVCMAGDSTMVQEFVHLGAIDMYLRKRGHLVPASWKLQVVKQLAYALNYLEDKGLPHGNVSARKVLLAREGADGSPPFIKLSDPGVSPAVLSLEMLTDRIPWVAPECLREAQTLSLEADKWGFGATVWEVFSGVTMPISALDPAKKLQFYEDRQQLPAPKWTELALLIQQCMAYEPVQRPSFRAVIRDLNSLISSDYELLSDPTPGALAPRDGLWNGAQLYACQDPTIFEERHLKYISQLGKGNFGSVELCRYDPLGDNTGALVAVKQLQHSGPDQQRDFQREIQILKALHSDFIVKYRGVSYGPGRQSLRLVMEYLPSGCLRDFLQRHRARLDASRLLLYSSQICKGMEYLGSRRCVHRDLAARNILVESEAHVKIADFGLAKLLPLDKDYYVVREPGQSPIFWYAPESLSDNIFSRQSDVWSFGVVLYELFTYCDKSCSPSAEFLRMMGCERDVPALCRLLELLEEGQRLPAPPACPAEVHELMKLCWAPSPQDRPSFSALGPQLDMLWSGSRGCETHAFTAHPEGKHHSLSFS

JAK2 = JAK2 (Homo sapiens, UniProt O60674); test: Caliper Mobility Shift Assay, kinase inhibition; assay type: biochemical; conditions: ATP by Km value
JAK2, sequence (O60674 whole entry, species assumed): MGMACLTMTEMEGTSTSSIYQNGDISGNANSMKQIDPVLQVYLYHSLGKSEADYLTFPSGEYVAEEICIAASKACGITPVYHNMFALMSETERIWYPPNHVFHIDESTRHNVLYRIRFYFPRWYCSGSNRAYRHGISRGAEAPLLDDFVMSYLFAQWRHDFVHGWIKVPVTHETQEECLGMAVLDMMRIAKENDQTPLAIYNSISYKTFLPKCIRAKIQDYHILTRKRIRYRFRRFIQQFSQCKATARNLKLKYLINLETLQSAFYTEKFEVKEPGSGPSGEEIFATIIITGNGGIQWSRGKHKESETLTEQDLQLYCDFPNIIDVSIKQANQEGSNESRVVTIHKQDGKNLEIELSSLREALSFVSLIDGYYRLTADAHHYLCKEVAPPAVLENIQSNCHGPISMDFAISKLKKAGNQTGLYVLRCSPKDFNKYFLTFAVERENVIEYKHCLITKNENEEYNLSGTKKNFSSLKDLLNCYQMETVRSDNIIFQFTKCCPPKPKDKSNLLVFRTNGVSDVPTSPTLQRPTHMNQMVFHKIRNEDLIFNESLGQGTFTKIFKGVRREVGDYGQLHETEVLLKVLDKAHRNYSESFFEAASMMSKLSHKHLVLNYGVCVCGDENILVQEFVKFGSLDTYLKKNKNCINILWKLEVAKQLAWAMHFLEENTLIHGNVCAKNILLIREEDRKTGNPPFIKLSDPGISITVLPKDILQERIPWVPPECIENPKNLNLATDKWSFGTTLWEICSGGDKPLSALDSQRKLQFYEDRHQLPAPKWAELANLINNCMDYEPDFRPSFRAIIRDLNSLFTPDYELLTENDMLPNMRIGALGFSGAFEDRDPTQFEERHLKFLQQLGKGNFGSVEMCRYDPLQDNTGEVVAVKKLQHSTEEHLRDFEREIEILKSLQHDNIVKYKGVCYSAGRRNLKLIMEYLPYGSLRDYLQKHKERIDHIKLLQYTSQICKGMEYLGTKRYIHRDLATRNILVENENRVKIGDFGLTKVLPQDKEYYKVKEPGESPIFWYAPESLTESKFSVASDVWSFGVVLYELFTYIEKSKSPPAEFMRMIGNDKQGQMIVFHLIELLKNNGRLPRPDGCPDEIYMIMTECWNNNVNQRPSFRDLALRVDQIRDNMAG

[1] = test system: rat with rheumatoid arthritis; test: Collagen-induced rheumatoid arthritis model, arthritis score; assay type: in vivo; conditions: DBA/1J rat, bovine Type II collagen/CFA model, intragastric administration, scored 2 weeks after administration, 1-4 scoring method
Procedure: For the function of the compound inhibiting rheumatoid arthritis, selecting DBA/1J rat, carrying out subcutaneous injection after complete emulsion of 50 ug of bovine Type II collagen and isometric complete Freund's adjuvant (CFA). Strengthening immunization once 21 days after adequate emulsion of 50 ug of same antigen and incomplete Freund's adjuvant (IFA). Starting observation and recording from the 45th day. Using 1-4 scoring method: 1 score, normal; 2 scores, swelling of one joint; 3 scores, swelling of more than one joint but not all joints; 4 scores, severe swelling or stiffness of the whole claw. Adding scores of all claws to obtain the total score of arthritis in rat. Showing successful model establishment when the total joint score of the rat is more than 1. After successfully establishing the model of rat with rheumatoid arthritis, using the compound of the invention to feed the rat by intragastric administration and scoring arthritis of the rat 2 weeks after administration.

phosphorylation of JAK2 = test: CTLL-2 cells, IL-2 stimulated, Western blot of phosphorylation; assay type: cell-based; conditions: Mus musculus, starved 6 h with compound, IL-2 150 U/mL 10 min, phosphorylation of JAK2 by Western blot, read-out: IC50 g (nM) JAK2
Procedure: (§1) Incubating for 10 min and collecting cells. Adding cell lysis buffer for cell lysis. Collecting protein to perform WEST-Blot detection, detecting phosphorylated JAK1, the phosphorylation of JAK2 and the phosphorylated STAT5, and obtaining the IC50 value.

phosphorylated STAT5 = test: as above; assay type: cell-based; conditions: Mus musculus, starved 6 h with compound, IL-2 150 U/mL 10 min, phosphorylated STAT5 by Western blot, read-out: IC50 g (nM) STAT5
Procedure: as §1

phosphorylated JAK1 = test: as above; assay type: cell-based; conditions: Mus musculus, starved 6 h with compound, IL-2 150 U/mL 10 min, phosphorylated JAK1 by Western blot, read-out: IC50 g (nM) JAK1
Procedure: as §1

JAK1, sequence (P23458 whole entry, species assumed): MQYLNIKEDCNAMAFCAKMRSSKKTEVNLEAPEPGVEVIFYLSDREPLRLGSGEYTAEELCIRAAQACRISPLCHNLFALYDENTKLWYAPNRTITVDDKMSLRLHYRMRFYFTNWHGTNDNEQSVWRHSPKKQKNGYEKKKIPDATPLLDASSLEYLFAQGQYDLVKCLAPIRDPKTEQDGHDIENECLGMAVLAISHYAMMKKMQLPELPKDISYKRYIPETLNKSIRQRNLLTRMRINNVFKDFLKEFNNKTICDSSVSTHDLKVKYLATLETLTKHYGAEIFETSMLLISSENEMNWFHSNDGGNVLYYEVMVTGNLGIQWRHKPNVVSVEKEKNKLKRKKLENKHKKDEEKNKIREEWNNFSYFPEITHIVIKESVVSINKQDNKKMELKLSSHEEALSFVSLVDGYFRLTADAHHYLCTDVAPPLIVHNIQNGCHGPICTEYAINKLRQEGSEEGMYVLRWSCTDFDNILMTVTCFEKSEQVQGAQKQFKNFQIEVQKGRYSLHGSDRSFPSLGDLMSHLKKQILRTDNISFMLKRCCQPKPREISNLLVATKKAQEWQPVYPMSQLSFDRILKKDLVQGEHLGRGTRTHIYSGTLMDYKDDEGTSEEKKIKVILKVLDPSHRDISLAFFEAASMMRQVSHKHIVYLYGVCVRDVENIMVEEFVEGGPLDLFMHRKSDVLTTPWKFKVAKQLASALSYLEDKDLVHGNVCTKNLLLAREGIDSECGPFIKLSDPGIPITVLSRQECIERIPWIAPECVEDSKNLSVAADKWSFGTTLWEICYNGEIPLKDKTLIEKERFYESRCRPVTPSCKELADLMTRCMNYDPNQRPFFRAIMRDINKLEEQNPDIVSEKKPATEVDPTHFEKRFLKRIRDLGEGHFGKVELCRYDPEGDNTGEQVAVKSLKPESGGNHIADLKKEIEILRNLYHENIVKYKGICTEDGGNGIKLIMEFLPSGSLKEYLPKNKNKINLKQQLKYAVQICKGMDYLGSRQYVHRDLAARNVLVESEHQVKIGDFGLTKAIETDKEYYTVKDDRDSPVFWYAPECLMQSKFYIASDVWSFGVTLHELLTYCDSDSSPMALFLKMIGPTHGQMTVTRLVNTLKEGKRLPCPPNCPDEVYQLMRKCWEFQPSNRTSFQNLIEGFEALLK

| SMILES | IC50 (JAK1) [nM] | IC50 (JAK3) [nM] | IC50 (JAK2) [nM] | Score of arthritis [1] | IC50 (phosphorylation of JAK2) [nM] | IC50 (phosphorylated STAT5) [nM] | IC50 (phosphorylated JAK1) [nM] |
| --- | --- | --- | --- | --- | --- | --- | --- |
| CCCS(=O)(=O)N1CC(CC#N)(n2cc(-c3ncnc4[nH]ccc34)c3c(F)cc(F)cc32)C1 [Example 43, 2-(1-(propylsulfonyl)-3-(6,8-difluoro-3-(7H-pyrrole[2,3-d]pyrimidine-4-yl)-1H-indole-1-yl)azetidine-3-yl)acetonitrile] | 13.3 | 67 | 28.4 |  |  |  |  |
| N#CCC1(n2cc(-c3ncnc4[nH]ccc34)c3ccccc32)CN(S(=O)(=O)N2CCCC2)C1 [Example 10] | 7 | 67 | 3.5 |  |  |  |  |
| CCS(=O)(=O)N1CC(CC#N)(n2cc(-c3ncnc4[nH]ccc34)cn2)C1 [Baricitinib, reference compound] |  |  |  | 2.4 |  |  |  |
| CCS(=O)(=O)N1CC(CC#N)(n2cc(-c3ncnc4[nH]ccc34)c3cc(F)cc(F)c32)C1 [Example 47, 2-(1-(ethylsulfonyl)-3-(5,7-difluoro-3-(7H-pyrrole[2,3-d]pyrimidine-4-yl)-1H-indole-1-yl)azetidine-3-yl)acetonitrile] | 30.5 | 58 | 11.6 |  |  |  |  |
| CCS(=O)(=O)N1CC(CC#N)(n2cc(-c3ncnc4[nH]ccc34)c3ccc(CC#N)cc32)C1 [Example 51, 2-(1-(ethylsulfonyl)-3-(6-ethylcyano-3-(7H-pyrrole[2,3-d]pyrimidine-4-yl)-1H-indole-1-yl)azetidine-3-yl)acetonitrile] | 45.5 | 172 | 41.6 |  |  |  |  |
| CCS(=O)(=O)N1CC(CC#N)(n2cc(-c3ncnc4[nH]ccc34)c3c(F)ccc(F)c32)C1 [Example 48, 2-(1-(ethylsulfonyl)-3-(5,8-difluoro-3-(7H-pyrrole[2,3-d]pyrimidine-4-yl)-1H-indole-1-yl)azetidine-3-yl)acetonitrile] | 10.5 | 72 | 4.6 |  |  |  |  |
| N#CCC1(n2cc(-c3ncnc4[nH]ccc34)c3ccccc32)CN(C(=O)[C@@H]2CCCN2)C1 (stereo in doubt) [Example 11, 2-(3-(3-(7H-pyrrole[2,3-d]pyrimidine-4-yl)-1H-indole-1-yl)-1-(pyrrolidine-2-carbonyl)azetidine-3-yl)acetonitrile] | 300 | 521 | 692 |  | 192 | 692 | 30 |
| CCS(=O)(=O)N1CC(CC#N)(n2cc(-c3ncnc4[nH]ccc34)c3ccc(Cl)cc32)C1 [Example 26, 2-(1-(ethylsulfonyl)-3-(6-chloro-3-(7H-pyrrole[2,3-d]pyrimidine-4-yl)-1H-indole-1-yl)azetidine-3-yl)acetonitrile] | 3.5 | 34 | 0.72 |  |  |  |  |
| CCS(=O)(=O)N1CC(CC#N)(n2cc(-c3ncnc4[nH]ccc34)c3ccc(C)cc32)C1 [Example 54, 2-(1-(ethylsulfonyl)-3-(6-methyl-3-(7H-pyrrole[2,3-d]pyrimidine-4-yl)-1H-indole-1-yl)azetidine-3-yl)acetonitrile] | 15.2 | 36 | 2.5 |  |  |  |  |
| CS(=O)(=O)N1CC(CC#N)(n2cc(-c3ncnc4[nH]ccc34)c3ccc(F)c(F)c32)C1 [Example 32, 2-(1-(methylsulfonyl)-3-(5,6-difluoro-3-(7H-pyrrole[2,3-d]pyrimidine-4-yl)-1H-indole-1-yl)azetidine-3-yl)acetonitrile] | 4.5 | 124 | 6.3 |  |  |  |  |
| CCS(=O)(=O)N1CC(CC#N)(n2cc(-c3ncnc4[nH]ccc34)c3ccccc32)C1 [Example 1, 2-(3-(3-(7H-pyrrole[2,3-d]pyrimidine-4-yl)-1H-indole-1-yl)-1-(ethylsulfonyl)azetidine-3-yl)acetonitrile] | 11 | 100 | 1.1 |  | 18.4 | 125 | 26.3 |
| CC(C)S(=O)(=O)N1CC(CC#N)(n2cc(-c3ncnc4[nH]ccc34)c3ccc(Cl)cc32)C1 [Example 28, 2-(1-(isopropylsulfonyl)-3-(6-chloro-3-(7H-pyrrole[2,3-d]pyrimidine-4-yl)-1H-indole-1-yl)azetidine-3-yl)acetonitrile] | 6.5 | 64 | 2.4 |  |  |  |  |
| CCS(=O)(=O)N1CC(CC#N)(n2cc(-c3ncnc4[nH]ccc34)c3cc(F)ccc32)C1 [Example 62, 2-(1-(ethylsulfonyl)-3-(5-fluoro-3-(7H-pyrrole[2,3-d]pyrimidine-4-yl)-1H-indole-1-yl)azetidine-3-yl)acetonitrile] | 3.6 | 30 | 1 |  | 29.9 | 130 | 33.9 |
| CCOc1ccc2c(-c3ncnc4[nH]ccc34)cn(C3(CC#N)CN(S(=O)(=O)CC)C3)c2c1 [Example 59, 2-(1-(ethylsulfonyl)-3-(6-ethoxyl-3-(7H-pyrrole[2,3-d]pyrimidine-4-yl)-1H-indole-1-yl)azetidine-3-yl)acetonitrile] | 25.4 | 90 | 2.8 |  |  |  |  |
| CCS(=O)(=O)N1CC(CC#N)(n2cc(-c3ncnc4[nH]ccc34)c3ccc(CC(F)(F)F)cc32)C1 [Example 53, 2-(1-(ethylsulfonyl)-3-(6-trifluoroethyl-3-(7H-pyrrole[2,3-d]pyrimidine-4-yl)-1H-indole-1-yl)azetidine-3-yl)acetonitrile] | 5.4 | 17 | 1.4 |  |  |  |  |
| CS(=O)(=O)N1CC(CC#N)(n2cc(-c3ncnc4[nH]ccc34)c3ccccc32)C1 [Example 2, 2-(3-(3-(7H-pyrrole[2,3-d]pyrimidine-4-yl)-1H-indole-1-yl)-1-(methylsulfonyl)azetidine-3-yl)acetonitrile] | 8 | 128 | 0.9 |  | 5.4 | 146 |  |
| CCS(=O)(=O)N1CC(CC#N)(n2cc(-c3ncnc4[nH]ccc34)c3cc(C(F)(F)F)ccc32)C1 [Example 63, 2-(1-(ethylsulfonyl)-3-(5-trifluoromethyl-3-(7H-pyrrole[2,3-d]pyrimidine-4-yl)-1H-indole-1-yl)azetidine-3-yl)acetonitrile] | 7.9 | 232 | 2.4 |  | 38.3 | 196 | 75.2 |
| CCS(=O)(=O)N1CC(CC#N)(n2cc(-c3ncnc4[nH]ccc34)c3ccc(Br)cc32)C1 [Example 31, 2-(1-(ethylsulfonyl)-3-(6-bromo-3-(7H-pyrrole[2,3-d]pyrimidine-4-yl)-1H-indole-1-yl)azetidine-3-yl)acetonitrile] | 3.5 | 21 | 8.3 |  |  |  |  |
